Test results reported in patent publication US10563272B2, “Compositions comprising Metarhizium fungi and use thereof as a pesticide” (Cotton Research and Development Corporation, priority 2015, dated 2020).

Key:
[1] = system: predatory beetles; assay: Rate trial on conventional cotton, Norwood 2012 (Example 10): predatory beetles; type: in vivo, Coleoptera (Coccinellidae, Melyridae); conditions: 3 and 6 Mar. 2012; fipronil 62.5 mL/ha; P<0.05
Procedure: (§1) This trial was conducted on commercial conventional cotton crops on a farm at Norwood (29° 28'S, 149° 50′E) near Moree, NSW, from 28 Feb. to 21 Mar. 2012. The cotton used for the trial was at the early squaring stage, when it was attractive to green mirids (Khan et al. 2004).
(§2) The efficacy of the following treatments against green mirids and predatory insects were evaluated: • 1. 250 mL/ha DAT 511 spore in oil (1×10^7 spores/ml); • 2. 500 mL/ha DAT 511 spore in oil (1×10^7 spores/ml); • 3. 1 L/ha DAT 511 spore in oil (1×10^7 spores/ml); • 4. 62.5 mL/ha of Fipronil; and • 5. Unsprayed (negative control).
(§3) The treatment plots were arranged in a randomized complete block design with six replicates per treatment. Each replicated plot measured 40 m wide (40 rows) and 90 m long.
(§4) Foliar application of each treatment was made on 28 Feb. (for both green mirids and beneficial insects) and 13 Mar. […]
(§5) Pre-treatment counts of adult and nymph green mirids, predatory beetles, predatory bugs, predatory lacewings and spiders were made by visual inspection of whole cotton plants. Both adults and nymphs of beneficial insects were counted. Plants were assessed in randomly selected one-metre lengths of row of each treatment replicate (i.e. 6 m per treatment). […] Data are expressed as numbers of green mirid adults and nymphs counted per metre per treatment.

[2] = system: lacewings; assay: Rate trial on conventional cotton, Norwood 2012 (Example 10): lacewings; type: in vivo, Chrysopa spp., Micromus tasmaniae; conditions: P>0.05
Procedure: as §1, §2, §3, §4, §5

[3] = system: spiders; assay: Rate trial on conventional cotton, Norwood 2012 (Example 10): spiders; type: in vivo, Lycosa spp., Oxyopes spp., Salticidae spp., Araneus spp.; conditions: P>0.05
Procedure: as §1, §2, §3, §4, §5

[4] = system: green vegetable bugs (GVB); assay: Rate trial on conventional cotton refuge crops, Undabri 2012 (Example 12): green vegetable bugs; type: in vivo, Nezara viridula; conditions: 14 DAT (P<0.01) and 21 DAT (P<0.05); DAT 511 500 mL/ha and 1 L/ha, fipronil
Procedure: (§6) This trial was conducted using commercial conventional cotton refuge crops at Undabri in Goondiwindi (28° 55'S, 150° 31′E) from 14 Feb. to 6 Mar. 2012.
as §2, with “mirids, green vegetable bugs” for “mirids”, “was assessed:” for “were evaluated:”, “fipronil;” for “of Fipronil;”
(§7) The plots were arranged in a randomized complete block design with three replicates per treatment. Each replicated plot measured 8 m (8 rows) wide and 250 m long.
(§8) Foliar applications of each treatment were made on 14 Feb. 2012 using a ground spray rig fitted with flat fan nozzles to achieve a droplet size of 200 μm. All insecticide formulations were water miscible. All treatments were applied using a spray volume of 100 L/ha. The untreated (negative control) plot was left unsprayed and the plot treated with synthetic insecticide received two applications similar to, and on the same date as, the plots treated with the fungus.
(§9) For each replicate, visual counts of adults and nymphs of green mirids, green vegetable bugs (GVB), apple dimpling bugs and predatory insects on whole cotton plants were made in a randomly selected 1 m length of row of cotton plants (i.e. 6 m per treatment). […]

[5] = system: apple dimpling bugs; assay: Rate trial on conventional cotton refuge crops, Undabri 2012 (Example 12): apple dimpling bugs; type: in vivo, Campylomma liebknechti
Procedure: as §6
as §2, with “mirids, green vegetable bugs” for “mirids”, “was assessed:” for “were evaluated:”, “fipronil;” for “of Fipronil;”
as §7, §8, §9

[6] = system: predatory beetles; assay: Rate trial on conventional cotton refuge crops, Undabri 2012 (Example 12): predatory beetles; type: in vivo, Coleoptera (Coccinellidae, Melyridae); conditions: DAT 511 250 mL/ha, 500 mL/ha and 1.0 L/ha; fipronil 62.5 mL/ha
Procedure: as §6
as §2, with “mirids, green vegetable bugs” for “mirids”, “was assessed:” for “were evaluated:”, “fipronil;” for “of Fipronil;”
as §7, §8, §9

[7] = system: predatory lacewings; assay: Rate trial on conventional cotton refuge crops, Undabri 2012 (Example 12): predatory lacewings; type: in vivo, Chrysopa spp., Micromus tasmaniae; conditions: DAT 511 250 mL/ha, 500 mL/ha and 1.0 L/ha; fipronil 62.5 mL/ha
Procedure: as §6
as §2, with “mirids, green vegetable bugs” for “mirids”, “was assessed:” for “were evaluated:”, “fipronil;” for “of Fipronil;”
as §7, §8, §9

[8] = system: spiders; assay: Rate trial on conventional cotton refuge crops, Undabri 2012 (Example 12): spiders; type: in vivo, Lycosa spp., Oxyopes spp., Salticidae spp., Araneus spp.; conditions: DAT 511 250 mL/ha, 500 mL/ha and 1.0 L/ha; fipronil 62.5 mL/ha
Procedure: as §6
as §2, with “mirids, green vegetable bugs” for “mirids”, “was assessed:” for “were evaluated:”, “fipronil;” for “of Fipronil;”
as §7, §8, §9

Q: Which results are given for N#Cc1nn(-c2c(Cl)cc(C(F)(F)F)cc2Cl)c(N)c1[S+]([O-])C(F)(F)F (stereo not drawn) [fipronil]?
A: number of predatory beetles per metre versus unsprayed and DAT 511 treated plots [1]: significantly lower; number of lacewings versus unsprayed (control) plots [2]: No significant difference; number of spiders versus unsprayed (control) plots [3]: No significant difference; green vegetable bugs per metre on unsprayed plots relative to treated plots [4]: significantly higher; apple dimpling bug adults per metre versus the unsprayed plot ([5]; 3, 7, 14 and 21 DAT, P<0.01): significantly fewer; apple dimpling bug nymphs per metre versus unsprayed plots ([5]; 7 DAT only, P<0.05): significantly lower; effect on number of predatory beetles per metre [6]: identical; effect on number of predatory lacewings per metre [7]: significantly lower; effect on number of spiders per metre [8]: significantly lower
